The conditions of data set [1]: cited from earlier work; for probability of discontinuation due to serious adverse events: patients taking the drug, Maher et al. 2019.
A further data set concerns the target Autotaxin (ATX) enzyme (Homo sapiens (Human), UniProt Q13822). Nature of the data set: Autotaxin (ATX) enzyme activity inhibition assay (Cayman Autotaxin Inhibitor Screening Assay Kit). The following applies: OD405, 37° C., 30 min; read-out: IC50, inhibitory activity on ATX activity. Format: biochemical. The method, then:
Subsequently, the 8 concentrations were diluted with Autotaxin Assay buffer (1×) provided in the kit into 19× compound working solutions (DMSO content was 1.9%). The Autotaxin Assay Reagent (10×) was taken out and diluted by 10 times with Autotaxin Assay Buffer (1×). The Autotaxin Substrate was taken out, dissolved by adding 1.2 mL of Autotaxin Assay Buffer (1×), mixed evenly and stood at room temperature.

A short description of data set [2]: Human liver microsome stability test. It counts as in vitro ADME. The following applies: human liver microsomes; for Remaining percentage (%) of compound after incubation for 30 min: 37° C., NADPH; for half-life at 1 µM: human.
Protocol: The human liver microsome stability test was performed by incubating the compound and human liver microsomes in vitro. First, the test compound is prepared as a 10 mM stock solution in DMSO solvent, and then the compound was diluted to 0.5 mM with acetonitrile. Human liver microsomes (Corning) were diluted with PBS and prepared as a microsome/buffer solution, which was used to dilute 0.5 mM of the compound into a working solution. […] A deep-well multiwell plate was taken, 30 μL of the working solution and 15 μL of pre-warmed NADPH solution (6 mM) were sequentially added to each well to initiate a reaction, and the reaction was incubated at 37° C. […] After centrifugation, the supernatant was collected, and added with purified water in a ratio of 1:1 to perform LC-MS/MS detection. […] T1/2 was calculated by using Excel.
For data set [3], the target named is hERG channels (CHO cell line stably expressing hERG) (Homo sapiens (Human), UniProt Q12809). In words: Inhibitory effect on hERG by full-automatic electrophysiological patch clamp QPatch. It counts as cell-based. The following applies: for IC50: CHO hERG cells, QPatch; for hERG IC50/ATX IC50: ratio of hERG IC50 (μM) to ATX IC50 (nM).
Sequence of hERG channels (CHO cell line stably expressing hERG) (Q12809 whole entry): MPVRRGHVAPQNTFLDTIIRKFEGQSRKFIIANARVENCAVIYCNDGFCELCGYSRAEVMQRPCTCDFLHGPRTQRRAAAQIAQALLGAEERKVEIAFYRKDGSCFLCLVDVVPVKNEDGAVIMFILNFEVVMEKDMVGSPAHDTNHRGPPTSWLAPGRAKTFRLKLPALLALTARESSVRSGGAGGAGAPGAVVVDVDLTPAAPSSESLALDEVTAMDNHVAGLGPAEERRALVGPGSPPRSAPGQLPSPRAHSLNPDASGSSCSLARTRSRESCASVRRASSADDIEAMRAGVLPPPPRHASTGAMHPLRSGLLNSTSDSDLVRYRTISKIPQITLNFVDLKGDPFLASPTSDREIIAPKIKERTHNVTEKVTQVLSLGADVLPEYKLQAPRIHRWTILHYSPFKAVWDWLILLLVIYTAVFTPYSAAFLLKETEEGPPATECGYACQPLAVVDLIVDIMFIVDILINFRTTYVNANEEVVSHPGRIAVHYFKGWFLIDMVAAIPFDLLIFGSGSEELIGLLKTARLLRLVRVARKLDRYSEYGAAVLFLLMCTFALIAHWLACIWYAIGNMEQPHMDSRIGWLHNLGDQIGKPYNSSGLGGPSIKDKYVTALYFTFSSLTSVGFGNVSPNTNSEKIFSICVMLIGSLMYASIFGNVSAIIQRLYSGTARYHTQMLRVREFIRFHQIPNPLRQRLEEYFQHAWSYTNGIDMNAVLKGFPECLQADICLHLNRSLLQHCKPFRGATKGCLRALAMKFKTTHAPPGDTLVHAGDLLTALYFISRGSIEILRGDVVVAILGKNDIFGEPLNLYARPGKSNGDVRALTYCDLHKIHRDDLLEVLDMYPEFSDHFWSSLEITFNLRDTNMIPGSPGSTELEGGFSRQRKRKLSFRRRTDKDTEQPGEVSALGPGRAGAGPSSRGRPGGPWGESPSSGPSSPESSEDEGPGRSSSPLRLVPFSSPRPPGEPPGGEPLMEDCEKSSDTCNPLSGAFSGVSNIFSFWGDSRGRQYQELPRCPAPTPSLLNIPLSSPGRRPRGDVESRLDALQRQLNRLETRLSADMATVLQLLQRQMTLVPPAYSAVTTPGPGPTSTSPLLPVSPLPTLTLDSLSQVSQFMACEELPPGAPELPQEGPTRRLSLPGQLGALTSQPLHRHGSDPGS
Protocol: Full-automatic electrophysiological patch clamp QPatch was used to detect the inhibitory effect of compounds on hERG. Cells used in this test were CHO cell line transfected with cDNA of hERG and stably expressing hERG channels (provided by Sophion Bioscience, Denmark), and the cell passage number was P24. The cells were cultured in a medium containing the following components (all purchased from Invitrogen): Ham's F12 medium, inactivated fetal bovine serum (10% (v/v)), hygromycin B (100 μg/ml), and Geneticin (100 μg/ml). CHO hERG cells were grown in a petri dish containing the above-mentioned medium and cultured in an incubator at 37° C. and containing 5% Co2.
The compound to be tested was prepared as a 10 mM stock solution in DMSO solvent, the compound was diluted to 3 mM, 1 mM, 0.3 mM, and 0.1 mM with DMSO, and then the compound was diluted to 30 μM, 10 μM, 3 μM, 1 μM, 0.3 μM and 0.1 μM with the extracellular fluid, so that except that the final concentration of DMSO in the 30 μM compound was 0.3%, the final concentration of DMSO in compound solutions of all other concentrations was 0.1%.
The CHO hERG cells, after being digested and resuspended, were added to the fully automated QPatch system (Sophion, Denmark), and subjected to a test according to the following preset procedure.
After reaching the ruptured whole cell configuration state in the initial stage, the whole cell current was recorded at room temperature (about 25° C.), and the cells were recorded for at least 120 seconds in order to achieve stability. The stable cells were selected for the test. During the whole test, the cell patch clamp was at a voltage of −80 mV, the cell patch clamp voltage was depolarized to +20 mV to activate the hERG potassium channels, and after 2.5 seconds, the cell patch clamp voltage was at −50 mV to eliminate inactivation and generate outward tail current. The peak tail current was used as the value of the hERG current. The voltage mode described above was applied to the cells for electrophysiological tests every 15 seconds. An intracellular liquid containing 0.1% dimethyl sulfoxide (solvent) was added to the cells to establish a baseline, and then the current was allowed to stabilize for 3 min. After the compound solution was added, the cells were kept in the test environment until the effect of the compound reached a steady state or until reaching 4 min. In the test experiments with different concentration gradients of the compound, the compound was added to the clamped cells from low to high concentration. After the compound test was finished, the cells were washed with the extracellular fluid until the current returned to a stable state.
The test data were analyzed by Qpatch analysis software provided by Sophion, Excel, and Graphpad Prism.
A short description of data set [4]: Pharmacokinetic test in mice. Format: in vivo, male ICR mice. The method, then:
(§1) For the in vivo pharmacokinetic test of rats, 6 male SD rats were used, 180-240 g, fasted overnight. […] The blood samples were centrifuged at 8,000 rpm at 4° C. for 6 min, and plasma was collected and stored at −20° C. The plasma at each time point was taken and added with an acetonitrile solution containing internal standard in 3-5 times the amount, vortexed and mixed for 1 min, and centrifuged at 13,000 rpm at 4° C. for 10 min. The supernatant was collected, added and mixed with water in 3 times the amount. An appropriate amount of the mixture was taken for LC-MS/MS analysis. The main pharmacokinetic parameters were analyzed using WinNonlin 7.0 software with non-compartmental model.
For the in vivo pharmacokinetic test of mice, 18 male ICR mice were used, 20-25 g, fasted overnight. Among them, 9 mice were orally administered by gavage (10 mg/kg), bloods of 3 mice were collected at each blood collection time point, and the bloods of the 9 mice were alternately collected. The other 9 mice were intravenously administered with the compound (1 mg/kg), bloods of 3 mice were collected at each blood collection time point, and the bloods of the 9 mice were alternately collected. The rest operations were the same as that of pharmacokinetic test in rats.

For data set [5], the target named is ATX enzyme activity in human plasma (Homo sapiens (Human), UniProt Q13822). Nature of the data set: Inhibition test of ATX enzyme activity in human plasma (LPA18:2 formation). Conditions: 37° C., 3 h. It counts as biochemical. The method, then: Whole blood was collected from healthy volunteers and anticoagulated with heparin. The blood collection tubes were centrifuged at 3,000 rpm for 10 min, and the plasma was taken and stored at −80° C. for use.
The compound was serially diluted with DMSO according to the conventional concentration requirements, and then 3 μL of the diluted compound was added to a 96-well plate, and 147 μL of PBS was added to each well containing 3 μL of the compound. After mixing homogenously, 50 μL of the mixture was removed and added to a new 96-well plate. The human plasma was taken out from the −80° C. refrigerator and thawed through rapid shaking in a 37° C. water bath. 50 μL of the human plasma was taken and added to the 96-well plate containing 50 μL of the diluted compound (the final system was 1% DMSO). The group without the compound was set as the positive control group. The 96-well plate was shaken and mixed uniformly, and incubated at 37° C. for 3 h. A blank group was also provided, and the plasma of the blank group was stored at −80° C. The blank group is provided to determine the baseline concentration of endogenous LPA.
After the incubation was finished, the blank group was thawed on ice and transferred to an incubation plate. Excess acetonitrile containing the internal standard LPA17:0 was added to the incubation plate to precipitate the plasma protein. After vortex centrifugation, the supernatant was taken and diluted, and a peak area of LPA18:2 and a peak area of internal standard LPA17:0 were detected using LC-MSMS mass spectrometry.
According to the inhibition rates of different concentrations of the compound, the IC50 value of the compound, which is related to inhibition of ATX enzyme activity in human plasma, was calculated.

Data set [6] is described as follows: Thermodynamic solubility test. Format: physicochemical. The following applies: for solubility: thermodynamic from solid. The method, then:
The compound was accurately weighed, and the prepared phosphate buffer (pH 7.4), FeSSIF solution (pH 5.8) and FaSSGF solution (pH 1.6) were added to prepare a solution with a concentration of 4 mg/mL, which was shaken at 1,000 rpm for 1 hour, and then incubated overnight at room temperature. After the incubation, the solution was centrifuged at 12,000 rpm for 10 min to remove undissolved particles, and the supernatant was transferred to a new centrifuge tube. The supernatant was diluted appropriately, then added with an acetonitrile solution containing the internal standard, and quantified using a standard curve prepared with the same matrix.

The nature of data set [7]: Pharmacokinetic test in rats. It counts as in vivo, male SD rats. The method, then:
as §1

Data set [8] relates to idiopathic pulmonary fibrosis model (IPF model) induced by bleomycin. In words: IPF model induced by bleomycin in rats. Format: in vivo, male BN rats. Conditions: 30 mg/kg orally twice a day. The method, then:
Using male BN rats, 180-240 g, idiopathic pulmonary fibrosis model (IPF model) was induced with a dose of 5 U/kg bleomycin. […] On the second day after the model was established, the animals were orally administered by gavage twice a day, where the administration group was administered with a dose of 30 mg/kg each time, and the solvent control group was administered with a blank solvent, and the administration continued for 21 days. During the administration, the body weight was weighed every three days. On day 21 of administration, alveolar lavage was conducted 2 h after the first administration, the inflammatory cells in the lavage fluid were counted, and the associated biomarkers in the supernatant of the lavage fluid were detected. After lavage, the left lungs of the rats were fixed, and stained with Masson's trichrome staining to score the fibrosis pathology. The remaining lung lobes were cryopreserved. The supernatant of the alveolar lavage fluid and the freshly frozen lung tissue of the three compound groups were taken and detected for a content of TGF-β1 protein and an amount of total protein by using ELISA, and the amount of TGF-β1 per milligram of total protein was calculated.

Where [9] appears, read: male, ICR, mouse, plasma, intravenous administration 1 mg/kg.
[10] abbreviates: male, ICR, mouse, plasma, oral administration by gavage 10 mg/kg.
Where [11] appears, read: FaSSGF solution, fassgf or other biorelevant, FaSSGF, pH 1.6, thermodynamic, read-out: Dissolubility FaSSGF (pH 1.6).
[12] abbreviates: FeSSIF solution, FeSSIF, pH 5.8, thermodynamic, read-out: Dissolubility FeSSIF (pH 5.8).
Where [13] appears, read: phosphate buffered saline, aqueous buffer, PBS, pH 7.4, thermodynamic, read-out: Dissolubility PBS (pH 7.4).
Where [14] appears, read: male, SD, rat, plasma, intravenous administration 1 mg/kg.
The mark [15] stands for this setting: male, SD, rat, plasma, oral administration by gavage 10 mg/kg.
[16] abbreviates: intravenous administration 1 mg/kg.
The mark [17] stands for this setting: oral administration by gavage 10 mg/kg.
The mark [18] stands for this setting: day 21, compared with solvent control group, FIG. 2.

Values after ≈ are worked out from the molar mass of the structure shown. Read-outs that look alike come from different tables or passages of the source.

For the molecule `COC(=O)c1ccc2c(c1)NC(=O)/C2=C(\Nc1ccc(N(C)C(=O)CN2CCN(C)CC2)cc1)c1ccccc1` [Nintedanib], in data set [1], the “probability of discontinuation due to serious adverse events” value is given as 26.3%. In data set [1] (patients), the “incidence of gastrointestinal reactions” value is no more than 50%.
For `C[C@H](OCCc1c[nH]nn1)C(=O)N1Cc2cnc(NC3Cc4ccccc4C3)nc2C1` [Compound I-1S, (S)-2-(2-(1H-1,2,3-triazol-4-yl)ethoxy)-1-(2-((2,3-dihydro-1H-inden-2-yl)amino)-5,7-dihydro-6H-pyrrolo[3,4-d]pyrimidin-6-yl)propan-1-one], on Autotaxin (ATX) enzyme, the IC50 is 28.6 nM.
Take `CC(OCCc1c[nH]nn1)C(=O)N1Cc2cnc(NC3Cc4ccccc4C3)nc2C1` (racemic) [Compound I-1, 2-(2-(1H-1,2,3-triazol-4-yl)ethoxy)-1-(2-((2,3-dihydro-1H-inden-2-yl)amino)-5,7-dihydro-6H-pyrrolo[3,4-d]pyrimidin-6-yl)propan-1-one]: the “Remaining percentage (%) of compound after incubation for 30 min” value (“Remaining percentage (%) of compound” for short) in data set [2] was 87.4%. Also, the IC50 on Autotaxin (ATX) enzyme was determined as 4.24 nM. In addition, in [3], the IC50 turned out to be 22300 nM and the “hERG IC50/ATX IC50” value is on record as 22.3/4.24 = 5.26.
As to `C[C@@H](OCCc1c[nH]nn1)C(=O)N1Cc2cnc(NC3Cc4ccccc4C3)nc2C1` [Compound I-1R, (R)-2-(2-(1H-1,2,3-triazol-4-yl)ethoxy)-1-(2-((2,3-dihydro-1H-inden-2-yl)amino)-5,7-dihydro-6H-pyrrolo[3,4-d]pyrimidin-6-yl)propan-1-one], the AUC(0-t) in [4] (setting [9]) was found to be 495 ng·h/mL; in [4] (setting [10]), 6120 ng·h/mL; in data set [7] (setting [14]), 828 ng·h/mL; in [7] (setting [15]), 6330 ng·h/mL. In addition, the clearance in data set [4] (setting [9]) was 34.8 mL/min/kg; in data set [7] (setting [14]), 21.3 mL/min/kg. For the same molecule, the half-life in [4] (setting [9]) is 22.2 min; in [4] (setting [10]), 40.2 min; in [7] (setting [14]), 25.8 min; in data set [7] (setting [15]), 151 min. The Vd in data set [4] (male, ICR, mouse, plasma, intravenous administration 1 mg/kg, read-out: Vz) is 1.05 L/kg; in [7] (male, SD, rat, plasma, intravenous administration 1 mg/kg, read-out: Vz), 0.76 L/kg. Also, the Cmax in [4] (setting [10]) was 6940 ng/mL; in data set [7] (setting [15]) it was 3390 ng/mL. Also, the Tmax in data set [4] (setting [10]) was found to be 25.2 min; in [7] (setting [15]) it was 30 min. Also, the “Remaining percentage (%) of compound” value in [2] was 86.0%. Besides, in data set [2], the half-life at 1 µM was 123 min. In addition, the IC50 in [5] is 12 nM; on Autotaxin (ATX) enzyme it was 2.67 nM; in data set [3] it was 22000 nM. The solubility in data set [6] (setting [11]) worked out at 88.5 µg/mL (≈ 211 µM); in data set [6] (setting [12]), 20.4 µg/mL (≈ 48.6 µM); in data set [6] (setting [13]) it was 20.4 µg/mL (≈ 48.6 µM). For the same molecule, in data set [3], the “hERG IC50/ATX IC50” value is on record as 22.0/2.67 = 8.24.
As to `O=C(COCCc1cnn[nH]1)N1Cc2cnc(NC3Cc4ccccc4C3)nc2C1` [Control compound, reference compound], the T1/2 came to 20.4 min in data set [4] (setting [16]); 49.8 min in data set [4] (setting [17]); 24.1 min in data set [2]; 27 min in data set [7] (setting [16]); 78.6 min in data set [7] (setting [17]). Besides, the “Remaining percentage (%) of compound” value in [2] came to 41.2%. Also, in data set [6] (FaSSGF, pH 1.6, thermodynamic), the “Dissolubility FaSSGF (pH 1.6)” value was 66.5 μg/mL. In data set [6] (FeSSIF, pH 5.8, thermodynamic), the “Dissolubility FeSSIF (pH 5.8)” value is 18.3 μg/mL. For the same molecule, the “Dissolubility PBS (pH 7.4)” value in data set [6] (PBS, pH 7.4, thermodynamic) stood at 6.3 μg/mL. The “thermodynamic solubility (in words)” value in data set [6] (simulated gastric juice, simulated intestinal juice, neutral conditions) is recorded as “relatively poor”.
With `CC(Cc1cnn[nH]1)OCC(=O)N1Cc2cnc(NC3Cc4ccccc4C3)nc2C1` (racemic) [Compound I-2, 2-((1-(1H-1,2,3-triazol-5-yl)propan-2-yl)oxy)-1-(2-((2,3-dihydro-1H-inden-2-yl)amino)-5,7-dihydro-6H-pyrrolo[3,4-d]pyrimidin-6-yl)ethan-1-one], the IC50 at Autotaxin (ATX) enzyme is 1.35 nM.
For `C[C@H](Cc1cnn[nH]1)OCC(=O)N1Cc2cnc(NC3Cc4ccccc4C3)nc2C1` [Compound I-2R, (R)-2-((1-(1H-1,2,3-triazol-5-yl)propan-2-yl)oxy)-1-(2-((2,3-dihydro-1H-inden-2-yl)amino)-5,7-dihydro-6H-pyrrolo[3,4-d]pyrimidin-6-yl)ethan-1-one], in [2], the “Remaining percentage (%) of compound” value was 63.7% and the half-life at 1 µM turned out to be 53.6 min. The IC50 in [5] was 4.73 nM. Further, the solubility in data set [6] (setting [11]) is 1040 µg/mL (≈ 2470 µM). In data set [6] (setting [12]), the solubility was determined as 260 µg/mL (≈ 620 µM). Moreover, the solubility in [6] (setting [13]) was 107 µg/mL (≈ 255 µM). Moreover, the “weight reduction of the animals” value in [8] (21 days, compared with control compound group, FIG. 1) is recorded as “significantly less than that of the control compound group”. Besides, in data set [8] (setting [18]), the “content of TGF-β1 in the freshly frozen lung tissue” value is reported as “significantly lower than those of the solvent control group” and the “content of TGF-β1 in the supernatant of the alveolar lavage fluid” value is listed as “significantly lower than those of the solvent control group”. The “clearance rate (CL) relative to that of the control compound” value in [7] (fraction of control compound's CL) is reported as “about ¼”. In data set [7] (oral), the “oral AUC0-t relative to that of the control compound” value was 4.2 times and the “oral Cmax relative to that of the control compound” value turned out to be 6.1 times. Moreover, in data set [3], half-maximal inhibition (IC50) was put at 9480 nM and the “hERG IC50/ATX IC50” value is reported as 9.48/1.59 = 6.0.
In the case of `Cc1ccc(=O)n(-c2ccccc2)c1` [Pirfenidone], in data set [1], the “probability of discontinuation due to serious adverse events” value was 20.9%.

Values taken from patent publication US12221449B2, “Pyrrolopyrimidine derivative and use thereof” (WUHAN HUMANWELL INNOVATIVE DRUG RESEARCH AND DEVELOPMENT …, priority 2019, dated 2025).
